Test results published in patent US20240293392A1, “INHIBITOR COMPOUNDS” (NeoPhore Limited, priority 2021, published 2024).
Counter-ions that a name gives are not always drawn.

Tests used:
[1] = biological target: T1, recombinant N-terminal MLH1 (residues 15-340) (Homo sapiens, UniProt P40692); experiment: Fluorescence Polarisation Assay for MLH1; assay type: binding; details: fluorescence polarisation probe displacement; 100 nM N-terminal MLH1, 5 nM probe compound
T1 construct: recombinant N-terminal MLH1 (residues 15-340)
T1 sequence (P40692 15-340): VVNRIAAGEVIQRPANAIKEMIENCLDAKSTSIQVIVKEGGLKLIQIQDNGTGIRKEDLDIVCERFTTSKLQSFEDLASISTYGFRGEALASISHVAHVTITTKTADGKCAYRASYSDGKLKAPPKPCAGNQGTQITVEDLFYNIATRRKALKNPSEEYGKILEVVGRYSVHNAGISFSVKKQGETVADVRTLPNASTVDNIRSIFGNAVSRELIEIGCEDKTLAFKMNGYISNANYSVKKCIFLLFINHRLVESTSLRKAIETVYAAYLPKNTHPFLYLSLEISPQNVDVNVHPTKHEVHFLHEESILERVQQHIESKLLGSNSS
Method in brief: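 FP displacement assay: 100 nM MLH1 (residues 15-340) preincubated 30 min at room temperature with compound in 25 mM HEPES pH 7.5, 250 mM NaCl, 10 mM MgCl2, 0.01% Triton X-100, 5 mM DTT, then 5 nM rhodamine-labelled probe added and read immediately. Data normalised to no-inhibitor and no-enzyme controls.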

[2] = biological target: T2, recombinant N-terminal PMS2 (residues 1-365) (Homo sapiens, UniProt P54278); experiment: Fluorescence Polarisation Assay for PMS2; assay type: binding; details: fluorescence polarisation probe displacement; 10 nM N-terminal PMS2, 5 nM probe compound; read-out: PMS2 IC50
T2 construct: recombinant N-terminal PMS2 (residues 1-365)
T2 sequence (P54278 1-365): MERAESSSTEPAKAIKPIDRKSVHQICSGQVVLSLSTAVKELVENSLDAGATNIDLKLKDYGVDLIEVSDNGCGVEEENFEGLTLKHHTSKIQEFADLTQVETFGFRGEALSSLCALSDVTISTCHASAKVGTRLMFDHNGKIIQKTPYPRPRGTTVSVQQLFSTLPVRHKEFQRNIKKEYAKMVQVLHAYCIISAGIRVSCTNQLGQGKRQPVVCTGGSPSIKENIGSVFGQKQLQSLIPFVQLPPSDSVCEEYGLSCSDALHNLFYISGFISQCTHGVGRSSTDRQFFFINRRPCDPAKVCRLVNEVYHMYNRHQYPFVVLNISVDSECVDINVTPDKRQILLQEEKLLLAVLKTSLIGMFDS
Method in brief: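 Competition fluorescence polarisation with 10 nM N-terminal PMS2 and 5 nM fluorescent probe (final), read after 1 h at room temperature following 30 min compound pre-incubation. Data normalised to no-inhibitor and no-enzyme controls; single-point screening or serial dilutions for potency.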

SMILES | IC50 [1] | IC50 [2]
O=C(c1c(O)cc(O)cc1OCc1ccccc1)N1Cc2cccc(CNC3CCOC3)c2C1 (stereo not shown) [Example 80, (2-(Benzyloxy)-4,6-dihydroxyphenyl)(4-(((tetrahydrofuran-3-yl)amino)methyl)isoindolin-2-yl)methanone] | 1000 to 10000 nM | 1000 to 10000 nM
O=C(c1c(O)cc(O)cc1OCc1ccccc1)N1Cc2cccc(CNC3COC3)c2C1 [Example 81, (2-(Benzyloxy)-4,6-dihydroxyphenyl)(4-((oxetan-3-ylamino)methyl)isoindolin-2-yl)methanone] | 1000 to 10000 nM | 1000 to 10000 nM
CC1(NCc2cccc3c2CN(C(=O)c2c(O)cc(O)cc2OCc2ccccc2)C3)COC1 [Example 82, (2-(Benzyloxy)-4,6-dihydroxyphenyl)(4-(((3-methyloxetan-3-yl)amino)methyl)isoindolin-2-yl)methanone] | < 1000 nM | 1000 to 10000 nM
NCc1cccc2c1CN(C(=O)c1c(O)cc(O)cc1OCc1ccccc1)C2 [Example 83, (4-(Aminomethyl)isoindolin-2-yl)(2-(benzyloxy)-4,6-dihydroxyphenyl)methanone hydrochloride] | < 1000 nM | 1000 to 10000 nM
O=C(c1c(O)cc(O)cc1OCc1ccccc1)N1CCc2ccc(CNC3COC3)cc2C1 [Example 84, (2-(Benzyloxy)-4,6-dihydroxyphenyl)(7-((oxetan-3-ylamino)methyl)-3,4-dihydroisoquinolin-2(1H)-yl)methanone] | 1000 to 10000 nM | 1000 to 10000 nM
O=C(c1c(O)cc(O)cc1OCc1ccccc1)N1CCc2ccc(CNC3CCOC3)cc2C1 (stereo not shown) [Example 85, (2-(Benzyloxy)-4,6-dihydroxyphenyl)(7-(((tetrahydrofuran-3-yl)amino)methyl)-3,4-dihydroisoquinolin-2(1H)-yl)methanone] | 1000 to 10000 nM | 1000 to 10000 nM
CNC(=O)c1ccc2c(c1)CN(C(=O)c1c(O)cc(O)cc1OCc1ccccc1)C2 [Example 86, 2-(2-(Benzyloxy)-4,6-dihydroxybenzoyl)-N-methylisoindoline-5-carboxamide] | < 1000 nM | < 1000 nM
CN(C)C(=O)c1ccc2c(c1)CN(C(=O)c1c(O)cc(O)cc1OCc1ccccc1)C2 [Example 87, 2-(2-(Benzyloxy)-4,6-dihydroxybenzoyl)-N,N-dimethylisoindoline-5-carboxamide] | < 1000 nM | < 1000 nM
O=C(c1c(O)cc(O)cc1OCc1ccccc1)N1Cc2cccc(OC3CCOC3)c2C1 (stereo not shown) [Example 88, (2-(Benzyloxy)-4,6-dihydroxyphenyl)(4-((tetrahydrofuran-3-yl)oxy)isoindolin-2-yl)methanone] | 1000 to 10000 nM | 1000 to 10000 nM
O=C(c1c(O)cc(O)cc1OCc1ccccc1)N1Cc2cccc(OCc3cncnc3)c2C1 [Example 89, (2-(Benzyloxy)-4,6-dihydroxyphenyl)(4-(pyrimidin-5-ylmethoxy)isoindolin-2-yl)methanone] | < 1000 nM | < 1000 nM

Second part, the molecule after the results:

IC50 [1] | IC50 [2] | SMILES
1000 to 10000 nM | 1000 to 10000 nM | O=C(c1c(O)cc(O)cc1OCc1ccccc1)N1Cc2cccc(OCC3CNC3)c2C1 [Example 90, (4-(Azetidin-3-ylmethoxy)isoindolin-2-yl)(2-(benzyloxy)-4,6-dihydroxyphenyl) methanone]
1000 to 10000 nM | < 1000 nM | N#Cc1cccc2c1CN(C(=O)c1c(O)cc(O)cc1OCc1ccccc1)C2 [Example 91, 2-(2-(Benzyloxy)-4,6-dihydroxybenzoyl)isoindoline-4-carbonitrile]
1000 to 10000 nM | 1000 to 10000 nM | N#CC1CN(c2cccc3c2CN(C(=O)c2c(O)cc(O)cc2OCc2ccccc2)C3)C1 [Example 92, 1-(2-(2-(Benzyloxy)-4,6-dihydroxybenzoyl)isoindolin-4-yl)azetidine-3-carbonitrile]
< 1000 nM | 1000 to 10000 nM | Nc1cccc2c1CN(C(=O)c1c(O)cc(O)cc1OCc1ccccc1)C2 [Example 93, (4-Aminoisoindolin-2-yl)(2-(benzyloxy)-4,6-dihydroxyphenyl)methanone]
